According to article PMC9775433 (Cancers, 2022):
Values joined by “and” are separate entries in the source; they are usually repeats but may differ in a detail not shown here. Equal entries are not always repeated.

Tests used:
Assay type in all cases: in vivo, human
Conditions in all cases: individual patient
[1] = Tumor drug concentration in tumor needle biopsy at day 17 (LC-MS-MS)
Protocol: (§1) All tissue samples were immediately snap frozen (within 1 min) in liquid nitrogen and cryopreserved at −80 °C until the day of analysis.
(§2) Tissue biopsies were weighed accurately before analysis. Tissue homogenate was prepared by using a mechanical homogenizer. The tumor tissue was homogenized with the precellys lysing kit (bertin instruments®) in the Roche MagNA lyzer®. […] Tissue homogenate samples were directly analyzed.
(§3) Supplementary data S2 – Methods (Details)
(§4) samples; using a validated liquid chromatography–tandem mass spectrometry (LC-MS-MS).
(§5) The system consisted of an Acquity H‐Class UPLC system, coupled to a Xevo TQ‐S micro
(§6) tandem mass spectrometer. […]

[2] = Skin drug concentration in skin biopsy at day 17 (LC-MS-MS)
Protocol: as §1, §2, §3, §4, §5, §6

[3] = Plasma pharmacokinetics of high-dose intermittent sunitinib (LC-MS-MS, NONMEM)
Protocol: Study pharmacokinetic assessment in plasma: Ethylenediaminetetraacetic acid (EDTA) blood was collected pretreatment and subsequently at multiple time points in all patients (0, 2, 4, 6, 8, 10, and 24 h post-dose on day 1 for both time schedules and thereafter at days 3, 8, 10, 15, 17, and 22 for the once weekly schedule and at days 3, 15, 17, and 29 for the once every 2 weeks schedule). All samples were centrifuged within 1 h after collection at 2000 g for 10 min (at 4 degrees Celsius (°C)), plasma was separated and stored at −80 °C until the day of analysis.
Since there is no evidence for the exact relationship between plasma and tumor concentrations, we chose to use the concentration–time data calculated by NONMEM for Cmax, the average concentration over time (Caverage) and the trough concentrations just before the next dose was administered (Ctrough) based on rich PK-data of each individual patient. […] Inter-occasion variability in bioavailability and absorption duration were allowed in the model. The control stream of the final model and the goodness-of-fit plots are supplied in the Supplementary Material (Supplementary Data S3). The developed model was used to derive the individual predictions for the Cmax, Caverage, and Ctrough. SUM concentrations were calculated.
as §3, §4, §5, §6

Tumor - N-desethyl Sunitinib concentration ([1]; sunitinib 400 mg O2W): 400 µg/L
Tumor - N-desethyl Sunitinib concentration ([1]; sunitinib 800 mg O2W): 330 µg/L
Skin - N-desethyl Sunitinib concentration ([2]; sunitinib 300 mg O2W): 124 µg/L and 218 µg/L
Skin - N-desethyl Sunitinib concentration ([2]; sunitinib 400 mg O1W): 406 µg/L
Skin - N-desethyl Sunitinib concentration ([2]; sunitinib 800 mg O2W): 194 µg/L
Cmax plasma - N-desethyl Sunitinib concentration ([3]; sunitinib 200 mg O1W): 68 ng/mL and 40 ng/mL and 58 ng/mL
Cmax plasma - N-desethyl Sunitinib concentration ([3]; sunitinib 300 mg O2W): 29 ng/mL and 7.49 ng/mL and 27 ng/mL
Cmax plasma - N-desethyl Sunitinib concentration ([3]; sunitinib 500 mg O2W): 32 ng/mL and 29 ng/mL and 51 ng/mL
Cmax plasma - N-desethyl Sunitinib concentration ([3]; sunitinib 600 mg O2W): 45 ng/mL and 41 ng/mL
SMILES: CCNCCNC(=O)c1c(C)[nH]c(/C=C2\C(=O)Nc3ccc(F)cc32)c1C [N-desethyl sunitinib]
Tumor - N-desethyl Sunitinib concentration ([1]; sunitinib 300 mg O1W): 589 µg/L and 12025 µg/L and 812 µg/L and 1101 µg/L and 1077 µg/L and 2934 µg/L and 6513 µg/L and 22945 µg/L and 578 µg/L and 10356 µg/L and 342 µg/L and 767 µg/L
Tumor - N-desethyl Sunitinib concentration ([1]; sunitinib 700 mg O2W): 13436 µg/L and 2500 µg/L and 19730 µg/L and 2387 µg/L and 4534 µg/L and 1675 µg/L and 17843 µg/L and 555 µg/L
Skin - N-desethyl Sunitinib concentration ([2]; sunitinib 300 mg O1W): 1288 µg/L and 1388 µg/L and 267 µg/L and 1355 µg/L and 529 µg/L and 224 µg/L and 648 µg/L and 865 µg/L and 1498 µg/L and 621 µg/L and 1842 µg/L and 2193 µg/L and 488 µg/L
Skin - N-desethyl Sunitinib concentration ([2]; sunitinib 700 mg O2W): 2743 µg/L and 221 µg/L and 168 µg/L and 987 µg/L and 5179 µg/L and 572 µg/L and 425 µg/L and 429 µg/L and 380 µg/L and 326 µg/L and 5652 µg/L and 1279 µg/L and 460 µg/L and 1021 µg/L and 1060 µg/L and 896 µg/L
Cmax plasma - N-desethyl Sunitinib concentration ([3]; sunitinib 300 mg O1W): 29 ng/mL and 34 ng/mL and 28 ng/mL and 22 ng/mL and 51 ng/mL and 15 ng/mL and 94 ng/mL and 32 ng/mL and 21 ng/mL and 31 ng/mL and 33 ng/mL and 23 ng/mL and 27 ng/mL and 43 ng/mL and 210 ng/mL and 63 ng/mL and 14 ng/mL
Cmax plasma - N-desethyl Sunitinib concentration ([3]; sunitinib 400 mg O1W): 15 ng/mL and 26 ng/mL and 9.48 ng/mL and 22 ng/mL and 28 ng/mL and 25 ng/mL and 6.66 ng/mL and 44 ng/mL and 154 ng/mL and 57 ng/mL
Cmax plasma - N-desethyl Sunitinib concentration ([3]; sunitinib 400 mg O2W): 33 ng/mL and 31 ng/mL and 28 ng/mL and 34 ng/mL
Cmax plasma - N-desethyl Sunitinib concentration ([3]; sunitinib 700 mg O2W): 26 ng/mL and 52 ng/mL and 24 ng/mL and 65 ng/mL and 55 ng/mL and 51 ng/mL and 21 ng/mL and 30 ng/mL and 40 ng/mL and 59 ng/mL and 35 ng/mL and 48 ng/mL and 36 ng/mL and 34 ng/mL and 23 ng/mL and 84 ng/mL and 164 ng/mL and 150 ng/mL and 85 ng/mL and 68 ng/mL and 54 ng/mL and 76 ng/mL and 125 ng/mL and 128 ng/mL and 200 ng/mL and 57 ng/mL
Cmax plasma - N-desethyl Sunitinib concentration ([3]; sunitinib 800 mg O2W): 55 ng/mL and 84 ng/mL and 13 ng/mL and 14 ng/mL and 29 ng/mL
